# Patent US8952034B2, “Fused heterocyclic compounds as ion channel modulators” (Gilead Sciences, Inc., priority 2009, dated 2015)
# Target: wild-type human cardiac sodium channel, hNav1.5 (Homo sapiens, UniProt Q14524)
# Test: Late INa screening assay (automated whole cell patch clamp, PatchXpress)
# Type: cell-based
# Settings: compound at 1 μM; HEK293 cells expressing hNav1.5; late INa generated with 10 μM Tefluthrin (or 50 nM ATX II); read-out: LateINa_1 uM (percent block of late INa)
# In short: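 Late sodium current through wild-type human hNav1.5 stably expressed in HEK293 cells (no beta subunits) was recorded by automated whole-cell patch clamp on a PatchXpress 7000A at 24-27° C. Late INa was induced with 10 μM Tefluthrin or 50 nM ATX II. Cells were stepped from −120 mV to −20 mV for 250 ms at 0.1 Hz, and percent block was normalized to current in Na-free extracellular solution.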
# wild-type human cardiac sodium channel, hNav1.5, sequence (Q14524 whole entry): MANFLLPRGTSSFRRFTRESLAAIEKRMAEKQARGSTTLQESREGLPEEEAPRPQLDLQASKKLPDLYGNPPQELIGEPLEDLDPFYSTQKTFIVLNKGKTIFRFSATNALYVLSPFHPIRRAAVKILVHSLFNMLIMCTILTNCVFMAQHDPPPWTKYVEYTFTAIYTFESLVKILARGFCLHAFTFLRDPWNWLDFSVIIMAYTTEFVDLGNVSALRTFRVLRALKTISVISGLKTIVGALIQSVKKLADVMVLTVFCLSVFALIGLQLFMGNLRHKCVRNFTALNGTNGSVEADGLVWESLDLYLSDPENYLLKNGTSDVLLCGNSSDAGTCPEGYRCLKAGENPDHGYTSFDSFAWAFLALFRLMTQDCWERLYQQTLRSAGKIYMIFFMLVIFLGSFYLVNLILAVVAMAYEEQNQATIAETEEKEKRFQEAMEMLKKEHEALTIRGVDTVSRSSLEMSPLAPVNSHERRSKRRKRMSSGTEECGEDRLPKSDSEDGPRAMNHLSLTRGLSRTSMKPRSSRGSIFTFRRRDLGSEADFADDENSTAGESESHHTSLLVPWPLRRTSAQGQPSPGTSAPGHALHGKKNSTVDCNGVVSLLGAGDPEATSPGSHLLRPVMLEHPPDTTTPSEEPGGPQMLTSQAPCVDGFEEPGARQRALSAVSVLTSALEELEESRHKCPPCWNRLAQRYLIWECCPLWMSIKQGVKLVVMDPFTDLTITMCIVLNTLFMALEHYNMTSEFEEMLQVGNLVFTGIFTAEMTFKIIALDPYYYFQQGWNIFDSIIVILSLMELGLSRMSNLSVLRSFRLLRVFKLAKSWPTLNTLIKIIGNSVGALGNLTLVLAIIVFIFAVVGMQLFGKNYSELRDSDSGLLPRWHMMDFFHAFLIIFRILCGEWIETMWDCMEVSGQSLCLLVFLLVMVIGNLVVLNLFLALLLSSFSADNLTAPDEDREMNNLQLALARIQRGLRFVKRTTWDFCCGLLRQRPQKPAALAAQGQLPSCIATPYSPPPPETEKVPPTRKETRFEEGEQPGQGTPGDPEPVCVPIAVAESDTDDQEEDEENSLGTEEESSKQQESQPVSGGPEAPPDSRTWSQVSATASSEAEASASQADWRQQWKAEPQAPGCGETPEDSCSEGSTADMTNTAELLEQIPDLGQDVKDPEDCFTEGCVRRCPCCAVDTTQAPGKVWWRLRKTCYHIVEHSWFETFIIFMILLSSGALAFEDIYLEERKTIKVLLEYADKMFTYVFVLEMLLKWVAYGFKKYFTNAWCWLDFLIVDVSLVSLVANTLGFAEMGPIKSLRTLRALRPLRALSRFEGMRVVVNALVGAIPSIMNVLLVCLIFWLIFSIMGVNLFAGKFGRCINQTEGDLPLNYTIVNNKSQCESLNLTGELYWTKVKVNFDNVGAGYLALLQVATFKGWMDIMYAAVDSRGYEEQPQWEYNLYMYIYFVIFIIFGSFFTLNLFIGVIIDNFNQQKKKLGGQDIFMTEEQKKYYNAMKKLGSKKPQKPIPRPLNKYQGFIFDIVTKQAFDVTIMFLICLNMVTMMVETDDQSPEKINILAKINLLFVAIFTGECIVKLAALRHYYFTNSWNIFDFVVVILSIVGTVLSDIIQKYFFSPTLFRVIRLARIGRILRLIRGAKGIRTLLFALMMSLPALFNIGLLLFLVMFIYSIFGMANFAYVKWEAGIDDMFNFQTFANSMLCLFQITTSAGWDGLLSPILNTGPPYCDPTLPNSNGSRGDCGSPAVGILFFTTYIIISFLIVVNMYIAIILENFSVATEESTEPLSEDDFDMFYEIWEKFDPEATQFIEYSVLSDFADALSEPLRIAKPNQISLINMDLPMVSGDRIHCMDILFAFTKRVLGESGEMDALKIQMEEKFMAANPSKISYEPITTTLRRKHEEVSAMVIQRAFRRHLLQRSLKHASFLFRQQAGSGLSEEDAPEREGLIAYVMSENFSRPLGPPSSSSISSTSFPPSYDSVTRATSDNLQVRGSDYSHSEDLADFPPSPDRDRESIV
row,Structure (SMILES),inhibition at 1 µM [%]
1,"FC(F)(F)Oc1ccc(-c2ccc3nnc(C(F)(F)OCc4cccc5ncccc45)n3c2)cc1 [BHN-281, 5-[(difluoro{6-[4-(trifluoromethoxy)phenyl][1,2,4]triazolo[4,3-a]pyridin-3-yl}methoxy)methyl]quinoline]",53.9
2,"FC(F)(F)Oc1ccc(-c2ccc3nnc(C(F)(F)OCc4ccnc5ccccc45)n3c2)cc1 [BHN-212, 4-[(difluoro{6-[4-(trifluoromethoxy)phenyl][1,2,4]triazolo[4,3-a]pyridin-3-yl}methoxy)methyl]quinoline]",59.6
3,"FC(F)(F)Oc1ccc(-c2ccc3nnc(C(F)(F)OCc4cc(-c5ccc(C6CC6)nc5)ccn4)n3c2)cc1 [BHN-316, 6-cyclopropyl-2′-[(difluoro{6-[4-(trifluoromethoxy)phenyl][1,2,4]triazolo[4,3-a]pyridin-3-yl}methoxy)methyl]-3,4′-bipyridine]",59
4,"FC(F)(F)Oc1ccc(-c2ccc3nnc(COCc4ccc(C(F)(F)F)cc4)n3c2)cc1 [BHN-226, 6-[4-(trifluoromethoxy)phenyl]-3-({[4-(trifluoromethyl)benzyl]oxy}methyl)[1,2,4]triazolo[4,3-a]pyridine]",59.3
5,"FC(F)(F)Oc1ccc(-c2ccc3nnc(C(F)(F)OCc4cn(-c5ccccc5)nc4C(F)(F)F)n3c2)cc1 [BHN-314, 3-(difluoro{[1-phenyl-3-(trifluoromethyl)-1H-pyrazol-4-yl]methoxy}methyl)-6-[4-(trifluoromethoxy)phenyl][1,2,4]triazolo[4,3-a]pyridine]",24.2
6,"CC(C)Cc1nc(COC(F)(F)c2nnc3ccc(-c4ccc(OC(F)(F)F)cc4)cn23)no1 [BHN-207, 3-(difluoro{[5-(2-methylpropyl)-1,2,4-oxadiazol-3-yl]methoxy}methyl)-6-[4-(trifluoromethoxy)phenyl][1,2,4]triazolo[4,3-a]pyridine]",60.3
7,"FC(F)(F)Oc1ccc(-c2ccc3nnc(C(F)(F)OCC#Cc4ccccc4)n3c2)cc1 [BHN-295, 3-{difluoro[(3-phenylprop-2-yn-1-yl)oxy]methyl}-6-[4-(trifluoromethoxy)phenyl][1,2,4]triazolo[4,3-a]pyridine]",87.7
8,"Cn1c(COC(F)(F)c2nnc3ccc(-c4ccc(OC(F)(F)F)cc4)cn23)nc2ccccc21 [BHN-296, 3-{difluoro[(1-methyl-1H-benzimidazol-2-yl)methoxy]methyl}-6-[4-(trifluoromethoxy)phenyl][1,2,4]triazolo[4,3-a]pyridine]",40.1
9,"FC(F)(F)Oc1ccc(COCc2nnc3ccc(-c4ccc(OC(F)(F)F)cc4)cn23)cc1 [BHN-242, 3-({[4-(trifluoromethoxy)benzyl]oxy}methyl)-6-[4-(trifluoromethoxy)phenyl][1,2,4]triazolo[4,3-a]pyridine]",72.2
10,"COCC(F)(F)c1nnc2ccc(C#Cc3ccccc3)cn12 [BHN-192, 3-(1,1-difluoro-2-methoxyethyl)-6-(phenylethynyl)[1,2,4]triazolo[4,3-a]pyridine]",31
11,"FC(F)(F)Oc1ccc(-c2ccc3nnc(C(F)(F)OCc4noc(-c5ccccc5)n4)n3c2)cc1 [BHN-323, 3-{difluoro[(5-phenyl-1,2,4-oxadiazol-3-yl)methoxy]methyl}-6-[4-(trifluoromethoxy)phenyl][1,2,4]triazolo[4,3-a]pyridine]",73
12,"FC(F)(F)Oc1ccc(-c2ccc3nnc(C(F)(F)OCc4noc(C5CCC5)n4)n3c2)cc1 [BHN-259, 3-{[(5-cyclobutyl-1,2,4-oxadiazol-3-yl)methoxy](difluoro)methyl}-6-[4-(trifluoromethoxy)phenyl][1,2,4]triazolo[4,3-a]pyridine]",71.6
13,"COCC(F)(F)c1nnc2ccc(-c3ccc(Oc4ccc(Cl)cc4)cc3)cn12 [BHN-137, 6-[4-(4-chlorophenoxy)phenyl]-3-(1,1-difluoro-2-methoxyethyl)[1,2,4]triazolo[4,3-a]pyridine]",48.2
14,"FC(F)c1nnc2ccc(-c3ccc(Oc4ccccc4)cc3)nn12 [BHN-13, 3-(difluoromethyl)-6-(4-phenoxyphenyl)[1,2,4]triazolo[4,3-b]pyridazine]",44.8
15,"COc1ccccc1SCC(C)COC(F)(F)c1nnc2ccc(-c3ccc(OC(F)(F)F)cc3)cn12 (stereo not drawn) [BHN-262, 3-(difluoro{3-[(2-methoxyphenyl)sulfanyl]-2-methylpropoxy}methyl)-6-[4-(trifluoromethoxy)phenyl][1,2,4]triazolo[4,3-a]pyridine]",47.8
16,"COc1cc(-c2ccc3nnc(C(F)(F)F)n3c2)cc(OC)c1OC [BHN-107, 3-(trifluoromethyl)-6-(3,4,5-trimethoxyphenyl)[1,2,4]triazolo[4,3-a]pyridine]",16.5
17,"FC(F)(F)c1nnc2ccc(-c3nnc(C4CC4)s3)cn12 [BHN-96, 6-(5-cyclopropyl-1,3,4-thiadiazol-2-yl)-3-(trifluoromethyl)[1,2,4]triazolo[4,3-a]pyridine]",20.3
18,"COCC(F)(F)c1nnc2ccc(-c3ccc(OC(F)(F)F)cc3C)cn12 [BHN-200, 3-(1,1-difluoro-2-methoxyethyl)-6-[2-methyl-4-(trifluoromethoxy)phenyl][1,2,4]triazolo[4,3-a]pyridine]",40.8
19,"N#CC1(c2ccc(-c3ccc4nnc(C(F)(F)F)n4c3)cc2)CCOCC1 [BHN-254, 4-{4-[3-(trifluoromethyl)[1,2,4]triazolo[4,3-a]pyridin-6-yl]phenyl}tetrahydro-2H-pyran-4-carbonitrile]",24.6
20,"Cc1nc(COC(F)(F)c2nnc3ccc(-c4ccc(OC(F)(F)F)cc4)cn23)no1 [BHN-147, 3-{difluoro[(5-methyl-1,2,4-oxadiazol-3-yl)methoxy]methyl}-6-[4-(trifluoromethoxy)phenyl][1,2,4]triazolo[4,3-a]pyridine]",29.1
21,"FC(F)(F)Oc1ccc(-c2ccc3nnc(COCc4ccccn4)n3c2)cc1 [BHN-244, 3-[(pyridin-2-ylmethoxy)methyl]-6-[4-(trifluoromethoxy)phenyl][1,2,4]triazolo[4,3-a]pyridine]",17.5
22,"CC(C)(O)C(F)(F)c1nnc2ccc(-c3ccc(OC(F)(F)F)cc3)cn12 [BHN-176, 1,1-difluoro-2-methyl-1-{6-[4-(trifluoromethoxy)phenyl][1,2,4]triazolo[4,3-a]pyridin-3-yl}propan-2-ol]",15.2

# Same assay, conditions: compound at 10 μM; HEK293 cells expressing hNav1.5; late INa generated with 10 μM Tefluthrin (or 50 nM ATX II); read-out: LateINa_10 uM (percent block of late INa)
row,Structure (SMILES),inhibition at 10 µM [%]
1,"NS(=O)(=O)c1ccc(-c2nnc3ccc(-c4ccc(OC(F)(F)F)cc4)cn23)cc1 [BHN-73, 4-{6-[4-(trifluoromethoxy)phenyl][1,2,4]triazolo[4,3-a]pyridin-3-yl}benzenesulfonamide]",17.5
2,"CC(=O)Nc1cc(-c2ccc(OC(F)(F)F)cc2C)cn2c(C)nnc12 [BHN-76, N-{3-methyl-6-[2-methyl-4-(trifluoromethoxy)phenyl][1,2,4]triazolo[4,3-a]pyridin-8-yl}acetamide]",31.9
3,"FC(F)c1nnc2ccc(-c3ccc(Oc4ccccc4)cc3)nn12 [BHN-13, 3-(difluoromethyl)-6-(4-phenoxyphenyl)[1,2,4]triazolo[4,3-b]pyridazine]",87.1
4,"COC(=O)c1ccc(-c2ccc3nnc(C(F)(F)F)n3c2)cc1 [BHN-46, methyl 4-[3-(trifluoromethyl)[1,2,4]triazolo[4,3-a]pyridin-6-yl]benzoate]",53.9
5,"Cc1nnc2ccc(-c3ccc(Oc4ccccc4)cc3)cn12 [BHN-333, 3-methyl-6-(4-phenoxyphenyl)[1,2,4]triazolo[4,3-a]pyridine]",61.6
